These results are taken from patent US11180510B2, “Xanthine derivatives and uses thereof as inhibitors of bromodomains of BET proteins” (Centre national de la recherche scientifique, priority 2017, dated 2021).

For one assay, the target named is T1, Brd2(BD2) (Homo sapiens, UniProt P25440).
T1 construct: GST tagged bromodomain proteins were purchased from BPS Bioscience; purchased BPS Bioscience
The assay can be described thus: HTRF BET selectivity profile, Brd2(BD2). The format is binding. To be noted: read-out: Brd2(BD2) IC50.

A further assay concerns 61 bromodomains. The assay can be described thus: Thermal shift assay selectivity profile on 61 bromodomains. The conditions noted are these: compound at 25 μM. In kind it is binding. How it is done:
FIG. 3. Thermal Shift Assay (TSA) of 43c. The evaluation was performed on 61 bromodomains. A cut-off at +/−3.5° C. was set.
TSA “Bromoscan” assays (Reaction Biology) were performed in 384 well RT-PCR plate (BioRad) with a total working volume of 15 μL. The “BromoMelT™, containing the 61 GST- or His-tagged-bromodomains, SYPRO® Orange and a mix compounds as control, was purchased from Reaction Biology. For each point, 3 μL of protein (1×) and 12 μL master mix (buffer+SYPRO® Orange+compound at 25 μM or control mix compounds or DMSO (0.5%)) were mixed in plate. The plate was placed in a CFX384 RTQPC (BioRad), and heated 10 seconds at 25° C., then the temperature was increased from 25° C. to 90° C., by increment of 0.5° C. every 30 seconds. The fluorescence was recorded using FRET filters.

The target in another assay is T2, Brdt(BD1) (Homo sapiens, UniProt Q58F21).
T2 construct: GST tagged bromodomain proteins were purchased from BPS Bioscience; purchased BPS Bioscience
The assay can be described thus: HTRF BET selectivity profile, Brdt(BD1). In kind it is binding. The method, boiled down: (§1)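 HTRF peptide-displacement assay with GST-tagged bromodomains and histone peptide, 0.5% final DMSO, incubated 3 h, 6 h or overnight at room temperature or 4 °C depending on bromodomain. 665/620 nm ratio read; inhibition scaled between DMSO and no-peptide controls, IC50 in triplicate.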
A general note: In TR-FRET formats the signal depends on donor and acceptor labels being close together.

The target in another assay is T3, Brd2(BD1) (Homo sapiens, UniProt P25440).
T3 construct: GST tagged bromodomain proteins were purchased from BPS Bioscience; purchased BPS Bioscience
T3 sequence (P25440 74-180 limits assumed): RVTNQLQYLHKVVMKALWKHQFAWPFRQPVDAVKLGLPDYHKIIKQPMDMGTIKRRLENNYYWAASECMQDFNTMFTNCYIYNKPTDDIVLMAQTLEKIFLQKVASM
The assay can be described thus: HTRF BET selectivity profile, Brd2(BD1). The format is binding. The conditions noted are these: for IC50: read-out: Brd2(BD1) IC50; for Ratio 2-1 vs 2-2: selectivity Brd2(BD1) vs Brd2(BD2), HTRF IC50.

The target in the next assay is T4, Brd3(BD2) (Homo sapiens, UniProt Q15059).
T4 construct: GST tagged bromodomain proteins were purchased from BPS Bioscience; purchased BPS Bioscience
T4 sequence (Q15059 306-415 limits assumed): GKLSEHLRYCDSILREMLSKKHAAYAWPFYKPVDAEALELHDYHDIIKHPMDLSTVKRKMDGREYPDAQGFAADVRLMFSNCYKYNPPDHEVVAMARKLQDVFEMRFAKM
As to the kind of experiment: HTRF BET selectivity profile, Brd3(BD2). The format is binding. The gist of the method:
as §1

In the next assay the test system is Jurkat cells. As to the kind of experiment: Cell Titer-Glo cell viability assay, Jurkat. In kind it is cell-based. To be noted: Homo sapiens, 72 h, mean of three experiments, NA = IC50 > maximal concentration used. Here is the method: (§2) The human leukemia cell line Jurkat (ATCC® TIB-152) and Molm14 was maintained in RPMI-1640 medium or MEMα, respectively and supplemented both with 10% FBS at 37° C. and 5% CO2.
(§3) In antiproliferative assays, compounds were assayed for their growth inhibiting activity towards the described cancer cell lines using the Cell Titer-Glo Luminescent Cell Viability Assay as described by the manufacturer (Promega Corporation). Briefly, 10.000 cells were plated onto 96 well-plates (white with clear bottom (3610, Corning Costar)) in 90 μL media per well immediately before assay. 10 μL of compounds were added at different concentrations (ranging from 50 μM to 6 nM) to each well and cell cultures were incubated 37° C. during 72 h. Vehicle (DMSO) was used as negative control, JQ1 (a pan-BET inhibitor) was used as positive control and all compounds were tested in constant percentage of DMSO (1%). After addition of 50 μL Cell Titer-GLO, shaking 2 minutes and incubating at room temperature 10 minutes, the Luminescence was measured using a Centro luminometer LB960 (Berthold). Dose-response curves were generated and effective dose 50 values (EC50) were calculated using non-linear regression analysis (Graph Pad Prism).
For orientation: Cellular ATP, detected with luciferase, serves as a proxy for viable cell number.

For assay [1], the target named is T5, BRD4(BD1) (Homo sapiens, UniProt O60885). As to the kind of experiment: HTRF assay, BRD4(BD1)/histone peptide interaction. In kind it is binding. On the set-up: made in house. The conditions noted are these: for IC50: HTRF; for Ratio 4-1 vs 4-2: selectivity Brd4(BD1) vs Brd4(BD2), HTRF IC50.
Another assay concerns the target Brd3(BD1) (Homo sapiens, UniProt Q15059). The assay can be described thus: HTRF BET selectivity profile, Brd3(BD1). In kind it is binding. The conditions noted are these: for Ratio 3-1 vs 3-2: selectivity Brd3(BD1) vs Brd3(BD2), HTRF IC50. Details: GST tagged bromodomain proteins were purchased from BPS Bioscience; purchased BPS Bioscience.
Assay [2] has as its target T5, BRD4(BD1). The assay can be described thus: Isothermal Titration Calorimetry. The conditions noted are these: ITC; read-out: Binding affinity (Kd) to BRD4(1) by Isothermal Titration Calorimetry. In kind it is binding. How it is done: FIG. 1. Isothermal Titration Calorimetry (ITC) of 43c. Thermogram (top) and non-linear least squares fit model of the integrated data (bottom) at 15° C. of Brd4 (BD1) […] as a function of the molar ratio of ligand to the protein.
ITC was used to evaluate the thermodynamics parameters of the binding between BRD4 (BD1) and the selected compounds. Titrations were carried out on a MicroCal ITC200 microcalorimeter (GE Healthcare, Piscataway, N.J.). Each experiment was designed using a titrant concentration (protein in the syringe generally between 100 and 400 μM) set 10 to 15 times the analyte concentration (compound in the cell generally between 10 and 40 μM) and using 13 injections at 25° C. A first small injection (generally 0.2 μL) was included in the titration protocol in order to remove air bubbles trapped in the syringe prior titration. Raw data were scaled after setting the zero to the titration saturation heat value. Integrated raw ITC data were fitted to a one site non-linear least squares fit model using the MicroCal Origin plugin as implemented in Origin 7 (Origin Lab). Finally, ΔG and TΔS values were calculated from the fitted ΔH and KA values using the equations ΔG=−R.T.inKA and ΔG=ΔH−TΔS.

Another assay concerns the target T6, Brd4(BD2) (Homo sapiens, UniProt O60885).
T6 construct: GST tagged bromodomain proteins were purchased from BPS Bioscience; purchased BPS Bioscience
As to the kind of experiment: HTRF BET selectivity profile, Brd4(BD2). In kind it is binding. The gist of the method:
as §1

The test system of another assay is Molm14 cells. As to the kind of experiment: Cell Titer-Glo cell viability assay, Molm14. The format is cell-based. To be noted: Homo sapiens, MOLM-14, 72 h, mean of three experiments, NA = IC50 > maximal concentration used. Here is the method: as §2, §3
The next assay deals with c-Myc. The conditions noted are these: known inhibitors, background statement; cited from earlier work.
The subject of the next assay is acute leukemia. The conditions noted are these: phase I study; cited from earlier work.
The mark [3] stands for this setting: mean of three experiments, NA = IC50 > 50 μM, read-out: Brd4(8D1) IC50.
Setting [4] is: triplicates, NA = IC50 > maximal concentration of compound used.

Like-named read-outs stand apart in the source and are kept apart here.

Sequence of Brd3(BD1) (Q15059 34-140 limits assumed): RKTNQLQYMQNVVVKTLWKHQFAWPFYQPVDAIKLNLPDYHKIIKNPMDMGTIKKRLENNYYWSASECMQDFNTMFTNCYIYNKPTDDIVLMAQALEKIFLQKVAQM
T1 sequence (P25440 344-453 limits assumed): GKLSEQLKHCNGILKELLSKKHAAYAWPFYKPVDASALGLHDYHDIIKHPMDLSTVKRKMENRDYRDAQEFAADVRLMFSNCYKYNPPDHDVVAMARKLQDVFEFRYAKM

For the compound `CCn1cnc2c1c(=O)[nH]c(=O)n2Cc1ccc(CNS(=O)(=O)c2ccc3c(c2)CCCC(=O)N3)cc1` [Compound 27c], the IC50 came out at 1610 nM at Brd2(BD2); 356 nM at Brdt(BD1); 336 nM on Brd2(BD1); 3470 nM against Brd3(BD2); 39500 nM with Jurkat cells; 283 nM at BRD4(BD1) [1] (setting [3]). The IC50 at BRD4(BD1) [1] (read-out: IC50 on BRD4(BD1) activity (concentration that inhibits protein-protein interaction by 50%), triplicates, NA = IC50 > maximal concentration of compound used) is 283 nM; at Brd3(BD1), 456 nM; on Brd4(BD2) it was 2780 nM. The “Bromodomain selectivity profile by thermal shift assay” value in the assay on 61 bromodomains is listed as “pan-BET selective”. Besides, on Brd2(BD1), the “Ratio 2-1 vs 2-2” value came out at 5. Also, at BRD4(BD1) [1], the “Ratio 4-1 vs 4-2” value came to 10. The “Ratio 3-1 vs 3-2” value on Brd3(BD1) came out at 8. Also, at BRD4(BD1) [2], the Kd amounted to 129 nM.

`CCn1cnc2c1c(=O)[nH]c(=O)n2Cc1ccc(CNS(=O)(=O)c2cccc(-c3ccccc3)c2)cc1` [Compound 29c]: the IC50 was found to be 14700 nM on Brd2(BD2); 8900 nM in the assay with Molm14 cells; 7440 nM against Brdt(BD1); 5470 nM on Brd2(BD1); 18900 nM at Brd3(BD2); 6900 nM in the assay with Jurkat cells. Further, the IC50 is 814 nM at BRD4(BD1) [1] (setting [3]), 814 nM against BRD4(BD1) [1] (setting [4]), 1600 nM against Brd3(BD1) and 12200 nM against Brd4(BD2). For the same compound, the “Ratio 2-1 vs 2-2” value at Brd2(BD1) is reported as 3. Also, the “Ratio 4-1 vs 4-2” value on BRD4(BD1) [1] worked out at 15. Further, the “Ratio 3-1 vs 3-2” value at Brd3(BD1) is recorded as 12. Further, on BRD4(BD1) [2], the Kd is 1100 nM.

Regarding `CCn1cnc2c1c(=O)[nH]c(=O)n2Cc1ccc(CNS(=O)(=O)c2ccc(Oc3ccccc3)cc2)cc1` [Compound 30c, N-(4-((7-ethyl-2,6-dioxo-1,2,6,7-tetrahydro-3H-purin-3-yl)methyl)benzyl)-4-phenoxybenzenesulfonamide], the IC50 at Brd2(BD2) came to 2490 nM; in the assay on Molm14 cells, 9200 nM; against Brdt(BD1), 1180 nM; on Brd2(BD1), 868 nM; on Brd3(BD2), 3160 nM; in the assay with Jurkat cells it was 10300 nM. The IC50 on BRD4(BD1) [1] (setting [3]) was 510 nM; against BRD4(BD1) [1] (setting [4]), 510 nM; against Brd3(BD1), 633 nM; against Brd4(BD2), 4590 nM. Also, the “Bromodomain selectivity profile by thermal shift assay” value with 61 bromodomains was “BRD4(1) and BRD3(1) selective”. The “Ratio 2-1 vs 2-2” value at Brd2(BD1) is on record as 3. Moreover, at BRD4(BD1) [1], the “Ratio 4-1 vs 4-2” value worked out at 9. For the same compound, the “Ratio 3-1 vs 3-2” value at Brd3(BD1) is listed as 5. For the same compound, the Kd at BRD4(BD1) [2] came out at 641 nM.

`CCn1cnc2c1c(=O)[nH]c(=O)n2Cc1ccc(CNS(=O)(=O)c2ccc(OCc3ccccc3)cc2)cc1` [Compound 31a]: the IC50 at Brd2(BD2) is 12800 nM; in the assay on Molm14 cells, 1800 nM; at Brdt(BD1) it was 8510 nM; on Brd2(BD1) it was 1460 nM; against Brd3(BD2), 13500 nM; with Jurkat cells it was 19400 nM. In addition, the IC50 on BRD4(BD1) [1] (setting [3]) turned out to be 355 nM; on BRD4(BD1) [1] (setting [4]) it was 355 nM; against Brd3(BD1), 596 nM; against Brd4(BD2), 9710 nM. Also, the “Bromodomain selectivity profile by thermal shift assay” value in the assay with 61 bromodomains is recorded as “not pan-BET selective”. Besides, the “Ratio 2-1 vs 2-2” value at Brd2(BD1) is recorded as 9. At BRD4(BD1) [1], the “Ratio 4-1 vs 4-2” value came to 27. Also, on Brd3(BD1), the “Ratio 3-1 vs 3-2” value turned out to be 23. Further, the Kd at BRD4(BD1) [2] came to 433 nM.

`COc1cc2c(cc1-c1c(C)noc1C)ncc1[nH]c(=O)n([C@H](C)c3ccccn3)c12` [I-BET151]: the “effect on c-Myc expression” value in the assay with c-Myc is “strong downregulation of c-Myc”.

For `Cc1sc2c(c1C)C(c1ccc(Cl)cc1)=N[C@@H](CC(=O)OC(C)(C)C)c1nnc(C)n1-2` [JQ1], the “effect on c-Myc expression” value with c-Myc is recorded as “strong downregulation of c-Myc”.

Take `Cc1sc2c(c1C)C(c1ccc(Cl)cc1)=N[C@@H](CC(=O)Nc1ccc(O)cc1)c1nnc(C)n1-2` [OTX015, (6S)-4-(4-chlorophenyl)-N-(4-hydroxyphenyl)-2,3,9-trimethyl-6H-thieno[3,2-f][1,2,4]triazolo[4,3-a][1,4]diazepine-6-acetamide]: the “clinical response in acute leukemia” value with acute leukemia is reported as “induced remissions, including complete remission in two patients with refractory disease”.
